From US11684652B2, “HMGB1 antagonist treatment of acute lung injury” (THE FEINSTEIN INSTITUTES FOR MEDICAL RESEARCH, priority 2019, dated 2023)
Where “and” joins values, the source holds several entries; their conditions need not be identical. Equal entries are not always repeated. Entries after “also recorded” stand apart in the source; their conditions may differ. Where two headings read alike, the source gives them in different places.

Experiments:
[1] = tested on: APAP-induced liver injury; assay: APAP-induced liver injury model; format: in vivo, mouse
[2] = tested on: liver ischemia and reperfusion injury; assay: warm liver ischemia and reperfusion (I/R) model; format: in vivo, mouse; conditions: 6 hours after reperfusion, K883 vs vehicle control; FIGS. 21A-C
Experimental: […] (SEQ ID NO: 1) (or vehicle control) was administered intraperitoneally at 500 μg/mouse at the time of I/R surgery and euthanized 6 hours later. Serum levels of ALT and AST were reduced in […] (SEQ ID NO: 1)-treated group vs. vehicle controls. *: P<0.05 vs. I/R group. n=5-7 mice/group.

[3] = tested on: CCI-induced neuropathic pain; assay: chronic constriction injury (CCI) of the sciatic nerve neuropathic pain model; format: in vivo, rat
Experimental: The CCI rats each received surgery. […] Mechanical and thermal sensitivity tests were also performed over time. Hargreaves Thermal Hypersensitivity test was administered to the rats as well as Von Frey mechanical hypersensitivity test.
Rats (male Wistar, 150-180 gm, n=6/group) had CCI surgery. […] Two weeks after surgery, thermal (Hargreaves) or mechanical (von Frey) hypersensitivity was assessed. *: P<0.05 vs. PBS group.
In this experiment, male Wistar rats (n=6/group) had CCI surgery. […] Mechanical allodynia was assessed 5 hours later. N=6-8 rats/group. *: p<0.05) vs. HMGB 1 alone. Mechanical and thermal sensitivity tests were also performed over time.

[4] = stability under acidic conditions (LC-MS); format: physicochemical; conditions: pH=2, two hours
[5] = tested on: influenza virus A/PR/8/34 (PR8); assay: lethal influenza infection model; format: in vivo; conditions: C57BL/6J mice; K883 100 ug/mouse intraperitoneally for 5 consecutive days from two days after infection; vs vehicle
[6] = tested on: PAMPs-induced TNF release (LPS, PGN, poly I:C, S100A12); assay: PAMPs-induced TNF release in human macrophages; format: cell-based; conditions: human primary macrophages, increasing amounts of K883, 16 hours
Experimental: TNF released was measured.

STZ-induced diabetes = STZ-induced diabetes model; format: in vivo; conditions: STZ-diabetic mice, repetitive K883 500 μg/mouse, vs PBS
Experimental: Mice were administered repetitive administration of […] (500 μg/mouse). […] Repetitive administration of […] was therefore shown to be beneficial in STZ-induced diabetes. […] (*: P<0.05 vs. PBS group. N=6-8 mice per group).

[7] = pharmacokinetics after intravenous administration in rats (LC-MS); conditions: IV 1 mg/kg
[8] = tested on: PAMPs-induced TNF release (LPS, PGN, poly I:C, S100A12); conditions: Yang 2015; cited from earlier work
[9] = tested on: APAP-induced liver injury; conditions: cited from earlier work
[10] = tested on: liver ischemia and reperfusion injury; conditions: cited from earlier work

NC(=O)N(CCC(=O)O)NC(=O)[C@H](CO)NC(=O)[C@H](CO)NC(=O)N(N)Cc1ccccc1 [K883]
serum ALT ([1]; 50 ugs/mouse of K883, vs vehicle controls): reduced serum ALT
liver necrosis (H&E) ([1]; APAP 350 mg/kg IP, K883 50 μg/mouse IP at 2 and 7 hours post-APAP, 24 hours, vs vehicle): reduced liver necrosis
survival (2 weeks) post-APAP ([1]; APAP 400 mg/kg, 50 μg/mouse IP once-a-day for 5 days starting 2 hours post-APAP, 8 in the control group): 14 mice out of 15
liver inflammation, H&E (neutrophil infiltration) [2]: reduced inflammation
tolerance to repeated treatment ([3]; K883 800 μg/rat IP once daily for three days, evaluated for 2 weeks): did not develop tolerance
Paw Withdrawal Latency ([3]; NO CCI (reference value)): 9.5 ± 1.0 s
CCI-induced thermal (Hargreaves) and mechanical (von Frey) hypersensitivity ([3]; male Wistar rats, K883 800 μg/rat IP once a day for 3 days, vs PBS): ameliorated both mechanical and thermal hypersensitivity; also recorded: improved CCI-induced thermal and mechanical hypersensitivity; also recorded: ameliorated the thermal hypersensitivity
CCI-induced CXCL1, TNF and IL-1β expression (spine) ([3]; spine): reduce CCI-induced CSCL1, TNF and IL-1(3 expression
stability under acidic conditions [4]: resistant to acid hydrolysis
survival (14 days) after PR8 infection [5]: significant survival
inhibition of TNF release induced by other PAMPs (LPS, PGN, AGE, Poly I:C) [6]: failed to inhibit other PAMPS; also recorded: does not inhibit other PAMPs
hyperglycemia (STZ-induced diabetes): delays hyperglycemia
insulitis (STZ-induced diabetes): reduces insulitis
weight gain (STZ-induced diabetes): improves weight gain
AUC∞ ([7]; Mean): 3778 ng·h/mL
AUC∞ ([7]; individual rats, 1 mg/kg): 3808 ng·h/mL and 3751 ng·h/mL

NC(=O)[C@H](CCC(=O)O)NC(=O)[C@H](CO)NC(=O)[C@H](CO)NC(=O)[C@@H](N)Cc1ccccc1 [P5779]
suppression of TNF release in macrophages stimulated by LPS, PGN, Poly I:C, CpG DNA or S100 A12 [8]: not suppress TNF release
liver necrosis (H&E) ([9]; APAP 350 mg/kg, P5779 50 or 500 μg/mouse IP at 2 and 7 hours post-APAP, vs scrambled control peptide): reduced liver necrosis
percent survival (2 weeks) post-APAP ([9]; APAP 400 mg/kg, P5779 500 μg/mouse IP once a day for 5 days starting 2 hours post-APAP): significantly improved
liver inflammation, H&E (neutrophil infiltration) ([10]; 6 hours after reperfusion, P5779 vs vehicle control): reduced inflammation
serum levels of ALT and AST ([10]; male C57BL/6 mice, 500 μg/mouse IP at the time of I/R surgery, 6 hours, vs vehicle): reduced
